Laboratory results reported in patent US8202882B2, “5-cyanothienopyridines for the treatment of tumours” (Merck Patent Gesellschaft MIT Beschränkter Haftung, priority 2007, dated 2012).

Each molecule was assayed against T1, GST-ALK5 (TGF-beta receptor I kinase) (Homo sapiens, UniProt P36897) (assay: In-vitro (enzyme) kinase assay, 384-well flashplate; inhibition of TGF-beta). Details: GST-ALK5 with GST-SMAD2 substrate, 3 mM ATP (33P-ATP), 30° C., 45 min.
T1 sequence (P36897 34-503): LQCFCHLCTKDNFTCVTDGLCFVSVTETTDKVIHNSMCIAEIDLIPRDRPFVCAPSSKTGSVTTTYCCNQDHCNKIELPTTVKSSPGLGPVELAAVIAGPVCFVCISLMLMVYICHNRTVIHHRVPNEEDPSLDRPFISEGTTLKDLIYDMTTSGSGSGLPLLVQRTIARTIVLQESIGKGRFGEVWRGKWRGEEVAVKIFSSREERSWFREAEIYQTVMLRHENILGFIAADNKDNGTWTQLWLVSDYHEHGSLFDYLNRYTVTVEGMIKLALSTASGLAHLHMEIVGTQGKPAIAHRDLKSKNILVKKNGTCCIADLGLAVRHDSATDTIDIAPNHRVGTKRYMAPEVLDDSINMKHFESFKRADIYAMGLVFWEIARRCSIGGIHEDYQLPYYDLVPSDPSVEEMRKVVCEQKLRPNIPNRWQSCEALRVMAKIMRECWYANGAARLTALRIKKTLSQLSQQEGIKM
Type: biochemical
Protocol: In-Vitro (Enzyme) Assay for the Determination of the Efficacy of Inhibitors of the Inhibition of TGF-Beta-Promoted Effects Vermittelten Wirkungen
The kinase assay is carried out as 384-well flashplate assay. 31.2 nM of GST-ALK5, 439 nM of GST-SMAD2 and 3 mM of ATP (with 0.3 μCi of ^33P-ATP/well) are incubated in a total volume of 35 μl (20 mM of HEPES, 10 mM of MgCl, 5 mM of MnCl, 1 mM of DTT, 0.1% of BSA, pH 7.4) without or with test substance (5-10 concentrations) at 30° C. for 45 min. The reaction is stopped using 25 μl of 200 mM EDTA solution, filtered with suction at room temperature after 30 min, and the wells are washed with 3 times 100 μl of 0.9% NaCl solution. Radioactivity is measured in the TopCount. The IC50 values are calculated using RS1.

Question: With `CCS(=O)(=O)N1CCN(c2nc3sc(C(N)=O)c(N)c3c(-c3cc(C)c(C)o3)c2C#N)CC1` [Compound A53, 3-Amino-5-cyano-4-(4,5-dimethylfuran-2-yl)-6-(4-ethanesulfonylpiperazin-1-yl)thieno[2,3-b]pyridine-2-carboxamide] as the molecule, how does the IC50 read?
Answer: The IC50 was 240 nM.

Question: For `CN1CCN(CCCNc2nc3sc(C(N)=O)c(N)c3c(-c3cc4ccccc4o3)c2C#N)CC1` [Compound A30, 3-amino-4-benzofuran-2-yl-5-cyano-6-[3-(4-methylpiperazin-1-yl)propylamino]thieno[2,3-b]pyridine-2-carboxamide], which IC50 is on record?
Answer: The IC50 was 63 nM.

Question: Which IC50 does the source give for `N#Cc1c(N)nc2sc(C(N)=O)c(N)c2c1-c1nc2ccccc2s1` [Compound A16, 3,6-Diamino-4-benzothiazol-2-y1-5-cyanothieno[2,3-b]pyridine-2-carboxamide] here?
Answer: Its IC50 is 290 nM.

Question: `N#Cc1c(NCC(O)CO)nc2sc(C(N)=O)c(N)c2c1-c1cc2ccccc2o1` (stereo not shown) [Compound A41, 3-Amino-4-benzofuran-2-yl-5-cyano-6-(2,3-dihydroxypropylamino)thieno[2,3-b]pyridine-2-carboxamide] was tested. Which IC50 did it give?
Answer: Its IC50 is 180 nM.
